We go through 17 molecules from US8148373B2, “Compounds” (AstraZeneca AB, priority 2008, dated 2012).

Assay [1] deals with T1, Adrenergic β2 (H292 cells) (Homo sapiens, UniProt P07550).
T1 construct: endogenous in cells; host or cells: H292 cells
Nature of the assay: Assay for Adrenergic β2 Mediated cAMP Production (concentration response, AlphaScreen cAMP detection). Format: cell-based. The settings on record: for EC50: cAMP production, 60 minutes at room temperature, 300 μM rolipram, read-out: β2 pEC50 (converted); for β2 Intrinsic activity: fraction relative to the maximum activity determined for formoterol. The method, boiled down:
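Intrinsic activity is relative to the per-experiment formoterol maximum, with pEC50 from a four-parameter logistic fit of cAMP levels quantified by AlphaScreen against standards. Cells (H292) got 300 μM rolipram for 10 min, then compound for 60 min at room temperature, 1% DMSO final.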

The target of assay [2] is T2, human muscarinic acetylcholine M3 receptor (M3-ACh) (Homo sapiens, UniProt P20309).
T2 construct: expressed in transfected cells; host or cells: CHO-K1 (Chinese Hamster Ovary) cell membranes
T2 sequence (P20309 whole entry): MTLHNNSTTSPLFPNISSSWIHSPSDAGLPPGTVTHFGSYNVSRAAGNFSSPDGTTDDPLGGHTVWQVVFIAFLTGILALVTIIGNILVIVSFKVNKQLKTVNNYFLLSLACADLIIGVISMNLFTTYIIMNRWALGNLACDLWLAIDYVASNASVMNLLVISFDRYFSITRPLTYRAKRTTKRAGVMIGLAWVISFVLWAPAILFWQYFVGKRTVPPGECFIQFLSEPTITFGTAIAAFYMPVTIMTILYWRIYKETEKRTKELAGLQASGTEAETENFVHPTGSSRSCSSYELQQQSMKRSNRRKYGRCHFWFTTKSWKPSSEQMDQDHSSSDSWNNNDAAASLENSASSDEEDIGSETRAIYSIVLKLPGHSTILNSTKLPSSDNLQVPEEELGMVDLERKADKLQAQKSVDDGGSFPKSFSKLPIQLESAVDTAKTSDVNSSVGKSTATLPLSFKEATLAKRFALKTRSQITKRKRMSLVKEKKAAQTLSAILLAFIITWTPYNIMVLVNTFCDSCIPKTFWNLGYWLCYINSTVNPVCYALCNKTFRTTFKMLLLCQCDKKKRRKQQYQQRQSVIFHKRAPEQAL
Briefly: Muscarinic 3 Receptor Binding Assay ([3H]NMS competition, SPA). Conditions: [3H]NMS 0.1 nM, CHO-K1 cell membranes, 16 hours at room temperature; read-out: M3 pIC50 (converted). The method, boiled down: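 Competition SPA binding of 0.1 nM [3H]NMS (quarter Kd) to membranes from CHO-K1 cells expressing human M3, in 20 mM HEPES pH 7.4, 5 mM MgCl2, 1% DMSO. Incubated 16 h at room temperature; non-specific binding with 1 µM atropine. pIC50 from 50% reduction of specific binding.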

Counter-ions that a name gives are not always drawn.

T1 sequence (P07550 whole entry): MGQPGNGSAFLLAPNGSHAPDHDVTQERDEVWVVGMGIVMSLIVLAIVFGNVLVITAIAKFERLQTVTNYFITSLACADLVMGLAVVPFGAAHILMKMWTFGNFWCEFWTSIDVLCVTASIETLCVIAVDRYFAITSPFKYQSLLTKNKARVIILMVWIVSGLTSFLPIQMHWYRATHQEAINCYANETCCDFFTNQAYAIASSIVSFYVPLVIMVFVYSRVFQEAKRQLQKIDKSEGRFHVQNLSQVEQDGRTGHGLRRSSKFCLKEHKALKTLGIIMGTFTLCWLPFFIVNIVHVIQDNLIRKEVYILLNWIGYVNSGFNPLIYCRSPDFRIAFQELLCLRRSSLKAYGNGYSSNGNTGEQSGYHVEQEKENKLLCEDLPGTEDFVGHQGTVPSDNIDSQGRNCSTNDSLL

Turning to `O=C(c1nc2ccccc2s1)N1CCOC2(CCN(CCOc3ccc(CNC[C@H](O)c4ccc(O)c5[nH]c(=O)sc45)cc3)CC2)C1` [Example 106, (R)-7-(2-(4-(2-(4-(Benzo[d]thiazole-2-carbonyl)-1-oxa-4,9-diazaspiro[5.5]undecan-9-yl)ethoxy)benzylamino)-1-hydroxyethyl)-4-hydroxybenzo[d]thiazol-2(3H)-one formate], in assay [1], the EC50 is 100 nM and the “β2 Intrinsic activity” value amounted to 0.8. The IC50 in assay [2] was 200 nM.

Regarding `O=C(c1nc2ccccc2s1)N1CCOC2(CCN(CCCCCCCCCNC[C@H](O)c3ccc(O)c4[nH]c(=O)sc34)CC2)C1` [Example 107, (R)-7-(2-(9-(4-(Benzo[d]thiazole-2-carbonyl)-1-oxa-4,9-diazaspiro[5.5]undecan-9-yl)nonylamino)-1-hydroxyethyl)-4-hydroxybenzo[d]thiazol-2(3H)-one formate], in assay [1], the EC50 is 39.8 nM and the “β2 Intrinsic activity” value is on record as 0.9. In addition, in assay [2], the IC50 is 6.31 nM.

On to `CC(C)c1nc(C(=O)N2CCOC3(CCN(CCOc4ccc(CNC[C@H](O)c5ccc(O)c6[nH]c(=O)sc56)cc4)CC3)C2)cs1` [Example 108, (R)-4-Hydroxy-7-(1-hydroxy-2-(4-(2-(4-(2-isopropylthiazole-4-carbonyl)-1-oxa-4,9-diazaspiro[5.5]undecan-9-yl)ethoxy)benzylamino)ethyl)benzo[d]thiazol-2(3H)-one formate], for which, in assay [1], the EC50 was 126 nM and the “β2 Intrinsic activity” value was found to be 0.9. The IC50 in assay [2] is 3.98 nM.

Take `CC(C)c1nc(C(=O)N2CCOC3(CCN(CCCCCCCCCNC[C@H](O)c4ccc(O)c5[nH]c(=O)sc45)CC3)C2)cs1` [Example 109, (R)-4-Hydroxy-7-(1-hydroxy-2-(9-(4-(2-isopropylthiazole-4-carbonyl)-1-oxa-4,9-diazaspiro[5.5]undecan-9-yl)nonylamino)ethyl)benzo[d]thiazol-2(3H)-one formate]: in assay [1], the EC50 is 7.94 nM and the “β2 Intrinsic activity” value came to 0.9. Further, the IC50 in assay [2] is 0.2 nM.

With `Cc1ccc(C(=O)N2CCOC3(CCN(CCOc4ccc(CNC[C@H](O)c5ccc(O)c6[nH]c(=O)sc56)cc4)CC3)C2)s1` [Example 110, (R)-4-Hydroxy-7-(1-hydroxy-2-(4-(2-(4-(5-methylthiophene-2-carbonyl)-1-oxa-4,9-diazaspiro[5.5]undecan-9-yl)ethoxy)benzylamino)ethyl)benzo[d]thiazol-2(3H)-one formate], in assay [1], the EC50 was 63.1 nM and the “β2 Intrinsic activity” value is recorded as 0.8. Further, the IC50 in assay [2] was 20 nM.

Turning to `Cc1ccc(C(=O)N2CCOC3(CCN(CCCCCCCCCNC[C@H](O)c4ccc(O)c5[nH]c(=O)sc45)CC3)C2)s1` [Example 111, (R)-4-Hydroxy-7-(1-hydroxy-2-(9-(4-(5-methylthiophene-2-carbonyl)-1-oxa-4,9-diazaspiro[5.5]undecan-9-yl)nonylamino)ethyl)benzo[d]thiazol-2(3H)-one formate], in assay [1], the EC50 is 31.6 nM and the “β2 Intrinsic activity” value stood at 0.8. In addition, the IC50 in assay [2] is 0.794 nM.

With `O=C(c1csc(-c2ccccc2)n1)N1CCOC2(CCN(CCOc3ccc(CNC[C@H](O)c4ccc(O)c5[nH]c(=O)sc45)cc3)CC2)C1` [Example 112, (R)-4-Hydroxy-7-(1-hydroxy-2-(4-(2-(4-(2-phenylthiazole-4-carbonyl)-1-oxa-4,9-diazaspiro[5.5]undecan-9-yl)ethoxy)benzylamino)ethyl)benzo[d]thiazol-2(3H)-one ditrifluoroacetate], in assay [1], the EC50 was 126 nM and the “β2 Intrinsic activity” value was 0.9. Moreover, the IC50 in assay [2] is 501 nM.

For `O=C(c1csc(-c2ccccc2)n1)N1CCOC2(CCN(CCCCCCCCCNC[C@H](O)c3ccc(O)c4[nH]c(=O)sc34)CC2)C1` [Example 113, (R)-4-Hydroxy-7-(1-hydroxy-2-(9-(4-(2-phenylthiazole-4-carbonyl)-1-oxa-4,9-diazaspiro[5.5]undecan-9-yl)nonylamino)ethyl)benzo[d]thiazol-2(3H)-one formate], in assay [1], the EC50 was 20 nM and the “β2 Intrinsic activity” value is recorded as 0.8. In addition, the IC50 in assay [2] was 20 nM.

`CC(C)c1ncc(C(=O)N2CCOC3(CCN(CCOc4ccc(CNC[C@H](O)c5ccc(O)c6[nH]c(=O)sc56)cc4)CC3)C2)s1` [Example 114, (R)-4-Hydroxy-7-(1-hydroxy-2-(4-(2-(4-(2-isopropylthiazole-5-carbonyl)-1-oxa-4,9-diazaspiro[5.5]undecan-9-yl)ethoxy)benzylamino)ethyl)benzo[d]thiazol-2(3H)-one ditrifluoracetate]: in assay [1], the EC50 was 63.1 nM and the “β2 Intrinsic activity” value worked out at 0.9. Besides, the IC50 in assay [2] is 316 nM.

Consider `CC(C)c1ncc(C(=O)N2CCOC3(CCN(CCCCCCCCCNC[C@H](O)c4ccc(O)c5[nH]c(=O)sc45)CC3)C2)s1` [Example 115, (R)-4-Hydroxy-7-(1-hydroxy-2-(9-(4-(2-isopropylthiazole-5-carbonyl)-1-oxa-4,9-diazaspiro[5.5]undecan-9-yl)nonylamino)ethyl)benzo[d]thiazol-2(3H)-one formate], for which, in assay [1], the EC50 is 6.31 nM and the “β2 Intrinsic activity” value is listed as 0.8. Moreover, in assay [2], the IC50 is 7.94 nM.

With `CC(C)c1cc(C(=O)N2CCOC3(CCN(Cc4cc(CCNC[C@H](O)c5ccc(O)c6[nH]c(=O)sc56)cs4)CC3)C2)cs1` [Example 264, (R)-4-Hydroxy-7-(1-hydroxy-2-(2-(5-((4-(5-isopropylthiophene-3-carbonyl)-1-oxa-4,9-diazaspiro[5.5]undecan-9-yl)methyl)thiophen-3-yl)ethylamino)ethyl)benzo[d]thiazol-2(3H)-one ditrifluoroacetate], in assay [1], the EC50 is 20 nM and the “β2 Intrinsic activity” value stood at 1. Further, the IC50 in assay [2] is 7.94 nM.

As for `CCC(CC)c1nc(C(=O)N2CCOC3(CCN(Cc4cccc(CCNC[C@H](O)c5ccc(O)c6[nH]c(=O)sc56)c4)CC3)C2)cs1` [Example 265, (R)-4-Hydroxy-7-(1-hydroxy-2-(3-((4-(2-(pentan-3-yl)thiazole-4-carbonyl)-1-oxa-4,9-diazaspiro[5.5]undecan-9-yl)methyl)phenethylamino)ethyl)benzo[d]thiazol-2(3H)-one ditrifluoroacetate], in assay [1], the EC50 is 12.6 nM and the “β2 Intrinsic activity” value was 1. Moreover, in assay [2], the IC50 was 0.794 nM.

`O=C(c1ccc2occc2c1)N1CCOC2(CCN(Cc3cccc(CCNC[C@H](O)c4ccc(O)c5[nH]c(=O)sc45)c3)CC2)C1` [Example 266, (R)-7-(2-(3-((4-(Benzofuran-5-carbonyl)-1-oxa-4,9-diazaspiro[5.5]undecan-9-yl)methyl)phenethylamino)-1-hydroxyethyl)-4-hydroxybenzo[d]thiazol-2(3H)-one ditrifluoroacetic acid]: in assay [1], the EC50 is 7.94 nM and the “β2 Intrinsic activity” value is recorded as 0.7. In addition, the IC50 in assay [2] was 0.316 nM.

On to `CCCc1cc(C(=O)N2CCOC3(CCN(Cc4cccc(CCNC[C@H](O)c5ccc(O)c6[nH]c(=O)sc56)c4)CC3)C2)cs1` [Example 267, (R)-4-Hydroxy-7-(1-hydroxy-2-(3-((4-(5-propylthiophene-3-carbonyl)-1-oxa-4,9-diazaspiro[5.5]undecan-9-yl)methyl)phenethylamino)ethyl)benzo[d]thiazol-2(3H)-one ditrifluoroacetate], for which, in assay [1], the EC50 was 10 nM and the “β2 Intrinsic activity” value is recorded as 0.9. Moreover, in assay [2], the IC50 was 1.58 nM.

As to `CC(C)c1ccc(C(=O)N2CCOC3(CCN(Cc4cccc(CCNC[C@H](O)c5ccc(O)c6[nH]c(=O)sc56)c4)CC3)C2)s1` [Example 268, (R)-4-Hydroxy-7-(1-hydroxy-2-(3-((4-(5-isopropylthiophene-2-carbonyl)-1-oxa-4,9-diazaspiro[5.5]undecan-9-yl)methyl)phenethylamino)ethyl)benzo[d]thiazol-2(3H)-one ditrifluoroacetate], in assay [1], the EC50 is 10 nM and the “β2 Intrinsic activity” value is 1. Besides, the IC50 in assay [2] was 1.58 nM.

As for `CC(C)c1nc(C(=O)N2CCOC3(CCN(CCOc4ccc(CCNC[C@H](O)c5ccc(O)c6[nH]c(=O)sc56)c(F)c4F)CC3)C2)cs1` [Example 269, (R)-7-(2-(2,3-Difluoro-4-(2-(4-(2-isopropylthiazole-4-carbonyl)-1-oxa-4,9-diazaspiro[5.5]undecan-9-yl)ethoxy)phenethylamino)-1-hydroxyethyl)-4-hydroxybenzo[d]thiazol-2(3H)-one ditrifluoroacetate], in assay [1], the EC50 was 31.6 nM and the “β2 Intrinsic activity” value was 1.1. Moreover, the IC50 in assay [2] is 6.31 nM.

For the molecule `CC(C)c1nc(C(=O)N2CCOC3(CCN(Cc4ccc(C(F)(F)F)c(CCNC[C@H](O)c5ccc(O)c6[nH]c(=O)sc56)c4)CC3)C2)cs1` [Example 270, (R)-4-Hydroxy-7-(1-hydroxy-2-(5-((4-(2-isopropylthiazole-4-carbonyl)-1-oxa-4,9-diazaspiro[5.5]undecan-9-yl)methyl)-2-(trifluoromethyl)phenethylamino)ethyl)benzo[d]thiazol-2(3H)-one ditrifluoroacetate], in assay [1], the EC50 is 251 nM and the “β2 Intrinsic activity” value worked out at 0.7. Further, the IC50 in assay [2] was 79.4 nM.
